The results in this text go back to US11684068B2, “Herbicidal compositions and methods of use thereof” (Valent U.S.A. LLC, priority 2018, dated 2023).

Series [1] in a line: Metribuzin solubility in salt solutions. Format: physicochemical. The conditions noted are these: saturated in ammonium sulfate, ammonium acetate and potassium citrate tribasic monohydrate solutions; FIG. 1. Here is the method:
Metribuzin is partially soluble in water. Because of its partial solubility metribuzin grows crystals in aqueous solutions. It is a discovery of the present invention that, if water solubility of metribuzin is lowered, then crystal growth is inhibited or reduced. To determine if salts could lower the water solubility of metribuzin, metribuzin was added to the saturation point to several concentrations of ammonium sulfate, ammonium acetate and potassium citrate tribasic monohydrate solutions. Results can be seen in FIG. 1.

Series [2] is described as follows: Wet sieve test and crystal examination after accelerated aging (long-term storage stability). Format: physicochemical. Here is the method: Variations of Composition 1 from Table 1, above, were subjected to extreme temperatures to determine long-term storage stability including the likelihood of large crystals growing that cause clogging of the spray nozzle by performing the wet sieve test. Specifically, these compositions containing various amounts of polyvinyl alcohol and ammonium sulfate were subjected to 2 weeks at 54° C. and 4 weeks at 50° C. accelerated aging. The wet sieve test typically was performed soon after the samples were brought back to room temperature using the following protocol:
A bottle containing the composition was emptied onto a 100-mesh sieve positioned on top of a receiver. Water was added to the bottle, shaken to rinse, and the rinse solution was poured onto the mesh to wash off the material. The rinsing step was repeated until visible quantity of residue on the mesh remained constant. If necessary, additional, minimum streams of water were introduced by way of a squirt or spray bottle to further clear the mesh. Typically, about 250 milliliters of water was used for about 40 grams of sample. The mesh was then dried to a constant weight and observed under a microscope.
Variations of Composition 2 from Table 1, above, were subjected to several conditions to determine long-term storage stability including % wet sieve test residue. Specifically, these compositions contained 0% or 2.8% w/w of polyvinyl alcohol and 0% or 2.8% w/w ammonium sulfate or 0% or 2.8% or 5.6% w/w potassium citrate and were subjected to 2 weeks at 54° C. and 4 weeks at 50° C.
Variations of Composition 3 from Table 1 above were subjected to several conditions to determine long-term storage stability including % wet sieve test residue. Specifically, these compositions contained 0 or 2.8% w/w of polyvinyl alcohol and 0% or 2.8% w/w ammonium sulfate and were subjected to 2 weeks at 54° C.
Variations of Composition 4 from Table 1, above, were subjected to several conditions to determine long-term storage stability including % wet sieve test residue. Specifically, these compositions contained 0% or 2.8% w/w of polyvinyl alcohol and 0% or 2.8% w/w ammonium sulfate and were subjected to 2 weeks at 54° C.
Compositions 5-7 from Table 1, above, were subjected to several conditions to determine long-term storage stability including % wet sieve test residue. Specifically, these compositions contained 1.4% or 1.5% w/w of polyvinyl alcohol and 2.0% or 2.8% w/w ammonium sulfate and were subjected to 2 weeks at 54° C. and 4 weeks at 50° C.

Where [3] appears, read: variations of Composition 2, 54° C. 2 weeks and 50° C. 4 weeks.

SMILES strings stand for the structures.

Turning to `CSc1nnc(C(C)(C)C)c(=O)n1N` [metribuzin], the “water solubility of metribuzin versus salt concentration” value in series [1] was “negatively correlated”.

Turning to `O=C([O-])CC(O)(CC(=O)[O-])C(=O)[O-].[K+].[K+].[K+]` [Potassium citrate], in series [2] (setting [3]), the “effect of additive on crystal growth and sieve residue” value was “completely inhibited crystal growth”.

Regarding `N.N.O=S(=O)(O)O` [Ammonium sulfate], the “effect of additive on crystal growth and sieve residue” value in series [2] (setting [3]) is “reduced crystal growth to small crystals”; in series [2] (variations of Composition 3, 54° C. 2 weeks), “reduced the amount of crystals isolated on the sieve substantially”; in series [2] (variations of Composition 4, 54° C. 2 weeks), “inhibited crystal growth and lowered sieve residue”.
